The text below walks through data of paper PMC4660370 (Nature Communications, 2015).

Where two headings read alike, the source gives them in different places.

For test [1], the target named is T1, AgIMPDH (Eremothecium gossypii, UniProt Q756Z6). The test is described as follows: IMPDH activity assay and enzyme kinetics (NADH absorbance at 340 nm), AgIMPDH. The class given is biochemical, A. gossypii. The following applies: for effect on AgIMPDH catalytic activity in vitro: adenine nucleotides; for α (substrate–inhibitor heterotropic cooperative interaction) / β (fractional activity of the ternary enzyme–substrate-inhibitor complex): mixed inhibition model. The procedure:
(§1) IMPDH activity was assayed by monitoring the reduction of NAD^+ to NADH and the subsequent increase in absorbance at 340 nm in buffer: 100 mM Tris-HCl, 100 mM KCl, 2 mM DTT pH 8.0. […] When Mg^+2 was included in the reaction, the total concentration of MgCl2 was 5 mM. The experimental data were fitted to the Michaelis–Menten equation of enzyme kinetics using the OriginPro software (OriginLab Corporation), to obtain the maximum apparent initial velocity (Vmax^app) and the apparent Michaelis–Menten constant (KM^app):
(§2) Following this equation, the global nonlinear regression analysis of Vmax^app and KM^app, as a function of the inhibitor concentration, allowed the intrinsic Michaelis–Menten constant (KM) and inhibition constant (Ki) for competitive inhibition to be determined. The substrate–inhibitor heterotropic cooperative interaction and the fractional activity of the ternary enzyme–substrate–inhibitor complex, α and β respectively, were estimated using a mixed inhibition model:
(§3) The constant α reflects the effect of the inhibitor on the apparent affinity of the enzyme for the substrate.

Test [2] concerns the target T2, HsIMPDH2 (Homo sapiens, UniProt P12268).
T2 construct: His8 (modified pET15b vector, TEV site) (N); made in house
The test is described as follows: IMPDH activity assay and enzyme kinetics, HsIMPDH2. The format is biochemical. The following applies: for effect on catalytic activity: ATP with or without 5 mM MgCl2; for α (substrate–inhibitor heterotropic cooperative interaction) / β (fractional activity of the ternary enzyme–substrate-inhibitor complex): mixed inhibition model. The procedure:
as §1, §2, §3

The target in test [3] is T3, BsIMPDH (Bacillus subtilis, UniProt P21879).
T3 construct: His8 (TEV site) (N, cleaved yes); made in house; host or cells: E. coli BL21 (DE3)
The test is described as follows: biochemical. The format is biochemical, Bacillus subtillis. To be noted: for effect on catalytic activity: ATP with or without 5 mM MgCl2. The procedure:
as §1, §2, §3

Test [4] concerns the target T4, EcIMPDH (Escherichia coli, UniProt P0ADG7).
T4 construct: His8 (TEV site) (N, cleaved yes); made in house; host or cells: E. coli BL21 (DE3)
Description: biochemical. The class given is biochemical. The following applies: for effect on catalytic activity: ATP with or without 5 mM MgCl2. Here is the method: as §1, §2, §3

In test [5] the target is T5, HsIMPDH1 (Homo sapiens, UniProt P20839).
T5 construct: His8 (modified pET15b vector, TEV site) (N); made in house
The test is described as follows: IMPDH activity assay and enzyme kinetics, HsIMPDH1. The class given is biochemical. The following applies: for effect on catalytic activity: ATP with or without 5 mM MgCl2; for α (substrate–inhibitor heterotropic cooperative interaction) / β (fractional activity of the ternary enzyme–substrate-inhibitor complex): mixed inhibition model. The procedure:
as §1, §2, §3

Test [6] relates to AgIMPDH ΔBateman. The test is described as follows: IMPDH activity assay, mutant lacking the Bateman domain. To be noted: 2 mM nucleotide. The class given is biochemical, A. gossypii. Here is the method: IMPDH activity was assayed by monitoring the reduction of NAD^+ to NADH and the subsequent increase in absorbance at 340 nm in buffer: 100 mM Tris-HCl, 100 mM KCl, 2 mM DTT pH 8.0. […] When Mg^+2 was included in the reaction, the total concentration of MgCl2 was 5 mM. The experimental data were fitted to the Michaelis–Menten equation of enzyme kinetics using the OriginPro software (OriginLab Corporation), to obtain the maximum apparent initial velocity (Vmax^app) and the apparent Michaelis–Menten constant (KM^app): […]

Test [7] has as its target T1, AgIMPDH. To be noted: GMP titration, WT.
Description: (§4) Standard ITC experiments were performed using an AutoITC200 system (Malvern Instruments). […] The resulting heats were integrated and fitted to a single binding site model implemented in the software package Origin (OriginLab Corporation).
The target of test [8] is AgIMPDH-ΔBateman (Eremothecium gossypii, UniProt Q756Z6, DEL116-235/INS115SQDG). The test is described as follows: Isothermal titration calorimetry, AgIMPDH-ΔBateman. The class given is binding, A. gossypii.
Description: as §4
The target of test [9] is T1, AgIMPDH. Description: biochemical.
Description: as §4

T3 sequence (P21879 whole entry): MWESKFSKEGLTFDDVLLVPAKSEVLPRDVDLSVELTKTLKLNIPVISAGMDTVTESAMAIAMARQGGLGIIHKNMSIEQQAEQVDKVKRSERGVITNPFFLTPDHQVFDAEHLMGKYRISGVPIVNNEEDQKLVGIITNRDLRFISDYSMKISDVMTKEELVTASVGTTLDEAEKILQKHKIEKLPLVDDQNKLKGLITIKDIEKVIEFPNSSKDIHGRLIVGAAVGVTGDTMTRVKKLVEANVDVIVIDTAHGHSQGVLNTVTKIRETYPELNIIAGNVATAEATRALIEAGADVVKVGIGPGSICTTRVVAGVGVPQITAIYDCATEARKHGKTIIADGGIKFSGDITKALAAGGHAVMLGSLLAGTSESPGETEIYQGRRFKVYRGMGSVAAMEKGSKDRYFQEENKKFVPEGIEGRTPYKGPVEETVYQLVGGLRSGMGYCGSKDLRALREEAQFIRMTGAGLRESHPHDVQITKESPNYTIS
T5 sequence (P20839 whole entry): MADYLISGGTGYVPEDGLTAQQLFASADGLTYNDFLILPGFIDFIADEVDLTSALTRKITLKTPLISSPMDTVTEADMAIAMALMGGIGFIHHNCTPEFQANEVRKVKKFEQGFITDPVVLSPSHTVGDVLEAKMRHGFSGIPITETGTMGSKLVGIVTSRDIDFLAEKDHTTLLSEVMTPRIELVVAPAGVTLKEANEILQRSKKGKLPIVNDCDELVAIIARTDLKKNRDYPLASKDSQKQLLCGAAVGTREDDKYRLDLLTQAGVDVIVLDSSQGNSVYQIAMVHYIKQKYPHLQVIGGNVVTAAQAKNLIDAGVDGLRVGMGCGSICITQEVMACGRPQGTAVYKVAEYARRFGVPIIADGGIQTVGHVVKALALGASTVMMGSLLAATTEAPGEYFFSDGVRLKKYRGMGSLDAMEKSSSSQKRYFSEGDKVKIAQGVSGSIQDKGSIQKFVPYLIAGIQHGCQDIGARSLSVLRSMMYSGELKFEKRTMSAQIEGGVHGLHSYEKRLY
T4 sequence (P0ADG7 whole entry): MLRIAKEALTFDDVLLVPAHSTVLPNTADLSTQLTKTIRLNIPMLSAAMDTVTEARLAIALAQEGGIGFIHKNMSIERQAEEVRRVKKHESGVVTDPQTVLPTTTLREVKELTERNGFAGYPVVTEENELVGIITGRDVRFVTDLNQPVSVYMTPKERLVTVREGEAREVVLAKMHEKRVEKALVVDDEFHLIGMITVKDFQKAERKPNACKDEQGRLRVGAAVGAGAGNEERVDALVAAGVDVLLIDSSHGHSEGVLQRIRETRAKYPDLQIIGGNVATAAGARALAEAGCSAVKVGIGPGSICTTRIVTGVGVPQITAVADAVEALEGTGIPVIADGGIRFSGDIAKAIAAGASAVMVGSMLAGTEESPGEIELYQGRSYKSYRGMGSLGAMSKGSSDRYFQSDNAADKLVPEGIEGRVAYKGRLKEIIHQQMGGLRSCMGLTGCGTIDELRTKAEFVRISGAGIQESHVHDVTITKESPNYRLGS

In the case of `Nc1ncnc2c1ncn2[C@@H]1O[C@H](COP(=O)(O)OP(=O)(O)O)[C@@H](O)[C@H]1O` [ADP], the “effect on AgIMPDH catalytic activity in vitro” value in test [1] is given as “did not exert any significant effect”.
On the same count and under the same terms, to `Nc1ncnc2c1ncn2[C@@H]1O[C@H](COP(=O)(O)O)[C@@H](O)[C@H]1O` [AMP] belongs “did not exert any significant effect”.
Turning to `Nc1ncnc2c1ncn2[C@@H]1O[C@H](COP(=O)(O)OP(=O)(O)OP(=O)(O)O)[C@@H](O)[C@H]1O` [ATP], the “effect on catalytic activity” value in test [2], in test [3], in test [4] and in [5] was “neither ATP nor Mg-ATP showed a significant effect” throughout. Moreover, the “effect on AgIMPDH catalytic activity in vitro” value in [1] was “did not exert any significant effect”.
One may read the Ki as a measure of affinity in units of concentration, obtained from inhibition or displacement. As to `Nc1nc2c(ncn2[C@@H]2O[C@H](COP(=O)(O)OP(=O)(O)O)[C@@H](O)[C@H]2O)c(=O)[nH]1` [GDP, guanosine-5′-diphosphate], the “effect on enzymatic activity of ΔBateman mutant (KM app/KM)” value (from here on “effect … of ΔBateman mutant (KM app/KM)”) in [6] was “not significantly affected”. For the same molecule, the “Inhibition (type)” value in test [2] was “Mixed type”; in test [3], “Mixed type—weak”; in test [1] it was “Mixed type”; in [4], “No”; in test [5], “Mixed type”. For the same molecule, the inhibition constant Ki in test [2] is 610 ± 60 µM; in test [3], 2300 ± 400 µM; in test [1] (read-out: Ki), 210 ± 40 µM; in test [5], 230 ± 40 µM. The “α (substrate–inhibitor heterotropic cooperative interaction)” value turned out to be 6.6±0.8 in test [2], 2.9±0.4 in test [3] (mixed inhibition model), 6.5±0.8 in test [1] and 4.7±0.7 in test [5]. Also, the “β (fractional activity of the ternary enzyme–substrate-inhibitor complex)” value in [2] worked out at 0.14±0.05; in [3] (mixed inhibition model), 0.8±0.1; in test [1], 0.033±0.005; in [5], 0.12±0.04.
Usually Kd stands for the constant that tells how readily two partners part at equilibrium. A high value points to lower affinity. `Nc1nc2c(ncn2[C@@H]2O[C@H](COP(=O)(O)O)[C@@H](O)[C@H]2O)c(=O)[nH]1` [GMP, guanosine-5′-monophosphate]: the “effect … of ΔBateman mutant (KM app/KM)” value in test [6] is “inhibited the wild-type and ΔBateman enzymes in a similar manner”. Besides, the “Inhibition (type)” value in test [2], in [3], in test [1], in test [4] and in test [5] was “Competitive” each time. Also, the “n (binding stoichiometry)” value in test [7] is on record as 0.9; in test [8] (GMP titration, ΔBateman), 1.0. Further, the ΔH in [7] is -9.1 kcal/mol; in test [8] (GMP titration, ΔBateman) it was -7.7 kcal/mol. Besides, the results for the Ki in test [3], in test [1] and in [4] were 420 ± 70 µM, 600 ± 100 µM and 1100 ± 100 µM, respectively. Moreover, the Kd in [8] stood at 22 µM; in [9], 24 µM.
For `Nc1nc2c(ncn2[C@@H]2O[C@H](COP(=O)(O)OP(=O)(O)OP(=O)(O)O)[C@@H](O)[C@H]2O)c(=O)[nH]1` [GTP, guanosine-5′-triphosphate], the “effect … of ΔBateman mutant (KM app/KM)” value in test [6] is “not significantly affected”. The “Inhibition (type)” value in test [2] is given as “Mixed type”; in test [3] it was “No”; in [1], “Mixed type”; in test [4] it was “Competitive”; in test [5] it was “Mixed type”. Moreover, the Ki in test [2] is 480 ± 60 µM; in test [1] (read-out: Ki), 160 ± 40 µM; in test [5], 540 ± 60 µM. In addition, the “α (substrate–inhibitor heterotropic cooperative interaction)” value in test [2] is listed as 3.0±0.4; in test [1], 4.1±0.7; in test [5] it was 3.8±0.5. Further, the “β (fractional activity of the ternary enzyme–substrate-inhibitor complex)” value in test [2] is given as 0.51±0.08; in [1], 0.24±0.05; in test [5], 0.11±0.04.
In the case of `Nc1ncnc2c1ncn2[C@@H]1O[C@H](COP(=O)(O)OP(=O)([O-])OP(=O)([O-])O)[C@@H](O)[C@H]1O.[Mg+2]` [Mg-ATP], the “effect on catalytic activity” value in test [2], in [3], in test [4] and in [5] was “neither ATP nor Mg-ATP showed a significant effect” each time. Also, in test [1] (total MgCl2 5 mM), the “effect on catalytic activity of AgIMPDH (Vmax app/Vmax, KM app/KM)” value is “not affected”.
